The results in this text go back to patent US20030180345A1, “Compositions and methods for inhibiting islet dysfunction and autoimmune disorders” (priority 2000, published 2003).

One test relates to NOD mice. In words: Onset of diabetes (glucosurea) in female NOD offspring after maternal taurine supplementation. The class given is in vivo. The source says:
Pregnant NOD mice were obtained and maintained on a control diet as described in Example 13. Pregnant mice were either supplemented with taurine in the drinking water (n=51) or were unsupplemented (n=37) throughout pregnancy. The supplemented group received taurine at a concentration of 2.5% (w/v) in drinking water. Considering the average amount of water consumed, this is equivalent to a taurine consumption of about 0.75 g/day per animal. Taurine supplementation ceased post-partum, and offspring were allowed to nurse for 21 days. […] Onset of diabetes was determined by the appearance of glucosurea which was assessed using glucose detection sticks.

The conditions of test [1]: 3 mmol/l taurine; SIN-1. How it is done: Chemiluminescence measurements. Luminol (5-amino-2,3-dihydro-1-4-phtalazinedione) at 400 μmol/l (Sigma Chemical Co.), taurine (0.3 or 3 mmol/l), methionine (0.1 or 1 mmol/l) and β-alanine (0.3 or 3 mmol/l) stock solutions were prepared in PBS. Sydnonimine (SIN-1), also known as 3-morpholinosydnonimine, a source of peroxynitrite, was purchased from Sigma Chemical Co. SIN-1 was prepared as 100 μmol in 1 mol/l NaOH. A reaction was initiated by simultaneous injection of luminol and SIN-1 into wells containing PBS either alone or with supplemental amino acid levels as noted above. Chemiluminescence emitted by luminol in the presence of peroxynitrite was measured every 30 seconds over 20 minutes in a chemifluorophotometer (MicroLumat LB96P, EG&G BERTHOLD), and was quantified as light intensity (10^8 RLU).
Nitric oxide is a reactive free radical which leads to peroxynitrite formation, another reactive free radical, by interaction with superoxide (NO+OO^−→ONOO^−). […] Luminol-derived chemiluminescence induced by peroxynitrite produced by the decomposition of sydnonimine (SIN-1) was evaluated to investigate the possibility that taurine quenched the peroxynitrite formed from NO.

For a further test, the system named is fetal islet β cells. In words: SNP-induced apoptosis in cultured fetal islets (TUNEL, confocal microscopy). To be noted: for in vitro apoptotic rate: absence of SNP. It is filed as cell-based, Wistar rats. How it is done: Animals and Diets. Adult virgin female Wistar rats were caged overnight with males and copulation was verified the next morning. Animals were maintained at 25° C. with a 10 h-14 h dark-light cycle. Pregnant rats were divided into two groups and fed one of the following isocaloric diets: either a control diet (C) containing 20% protein or a low protein diet (LP) containing 8% protein. The composition of the diet was as described previously by Snoeck et al. 1990 (Biol. Neonate 57, 107-118). The diets were purchased from Hope Farms (Woerden, Holland). Animals in both the groups had free access to water at all times. At 21.5 days of gestation, females were sacrificed by decapitation and fetuses removed.
Islet culture and treatment. Fetal islets were isolated as described by Mourmeaux et al. 1985 (Molecular and Cellular Endocrinology 39:237-246). Islets were cultured in 35 mm Petri-dishes (Falcon plastics, Los Angeles, Calif.) in RPMI 1640 medium (Gibco, Grand Island, N.Y., USA) with 10% Fetal Bovine Serum and antibiotics (penicillin 200 U/ml, streptomycin 0.2 mg/ml). Petri dishes were incubated at 37° C. with 5% CO2 in air. The culture medium was changed daily after the second day. On the 5th day of culture, islets were rinsed twice with serum free DME/F12 medium (1:1, v/v, Gibco, Paisley, Scotland) and subsequently incubated for 42 hours in this medium. […]
TUNEL method for evaluating apoptosis. Apoptosis was evaluated by the TUNEL method described herein, and visualized with confocal microscopy. Cultured islets were fixed in methanol and stored at −20° C. until analysis. The tissue was then washed with phosphate buffered saline (PBS) for 3 min, and a terminal deoxynucleotidyl transferase (TdT) reaction buffer (50 μl) was added. The 50 μl of TdT solution was prepared using 10 μl of 5× concentrated buffer solution (1 mol/l potassium cacodylate; 125 mmol/l Tris-HCl, pH 6.6; 1.26 mg bovine serum albumin). Cobalt chloride (5 μl of 25 mmol/l), 0.5 μl (12.5 units) of TdT (both from Boehringer Mannheim, Germany), and 0.25 nmoles of BODIPY-FL-X-14-dUTP (Molecular Probes, Eugene, Oreg. USA) were added, along with distilled water, up to 50 μl. Islets were incubated in Petri dishes with the TdT reaction buffer for 60 min at 37° C., then rinsed twice with 15 mmol/l EDTA (pH 8.0) in PBS and once with 0.1% Triton X-100 in PBS. Then, 2 ml of PBS containing 2.5 μg/ml of propidium iodide (Molecular Probes, Eugene, Oreg. USA) was added to the dishes for 5 min. Finally, islet cells were washed with 15 mmol/l EDTA (pH 8.0). Islet cells were then double-labelled for apoptotic nuclei, showing the BODIPY-FL-dUTP label in […] and total nuclei with propidium iodide in red.
Confocal microscopy. Staining probes were visualised through a confocal laser scanning microscopy system (MRC-1024 UV; BIO-RAD, UK) equipped with Argon ion and Krypton/Argon ion lasers. BODIPY-FL was excited at 503 nm, ethidium bromide at 510 nm, propidium iodide at 536 nm and Hoechst 33342 at 346 nm. The emissions were recorded respectively at 522/32 nm, 605/32 nm and 455/30 nm. Four to six optical sections were collected at every 15 μm through the islet. The number of BODIPY-FL-positive or ethidium bromide-positive nuclei were reported and expressed as a percentage of the total number of nuclei.
Animals, diets, and fetal islet isolation procedures were conducted as described in Example 1.

In the next test the test system is iNOS. Kind of test: Islet iNOS immunoreactivity with dietary taurine supplementation. It is filed as in vivo, Wistar rats. To be noted: all stages. On the procedure: Animals and diets were prepared as described in Example 8. The pancreas was removed, and the presence of Fas, Fas ligand, inducible nitric oxide synthase (iNOS) and vascular endothelial growth factor (VEGF) were evaluated in pancreatic sections using immunoreactivity.

Turning to `NCCS(=O)(=O)O` [taurine, 2-aminoethylsulfonic acid], the “proportion of female offspring showing diabetes” value with NOD mice (at 25 weeks, maternal taurine 2.5% (w/v) in drinking water during pregnancy) is reported as “about half”. Further, the “proportion of taurine-supplemented group still not diabetic” value in the test with NOD mice (at 50 weeks) is recorded as “about 10%”. The “luminol chemiluminescence (peroxynitrite quenching)” value in test [1] is given as “dramatically decreased”. For the same compound, the “reduction of SNP-induced apoptosis” value in the test on fetal islet β cells (0.3 mmol/l taurine, SNP 100 μmol/l, LP islets) was found to be 60%; in the test with fetal islet β cells (0.3 mmol/l taurine, SNP 100 μmol/l, control islets), 30%. The “in vitro apoptotic rate” value was determined as 1.5±0.2% in the test on fetal islet β cells (control diet (C) islets, 0.3 mmol/l taurine); 1.4±0.3% in the test on fetal islet β cells (control diet (C) islets, 3 mmol/l taurine); 2.1±0.3% with fetal islet β cells (low protein diet (LP) islets, 0.3 mmol/l taurine); 2.1±0.4% in the test with fetal islet β cells (low protein diet (LP) islets, 3 mmol/l taurine). For the same compound, in the test with fetal islet β cells (taurine 0.3 or 3 mmol/l, SNP 100 μmol/l, both diet groups), the “percentage of β cells positive for apoptosis” value is given as “significantly decreased”. For the same compound, the iNOS immunoreactivity result with iNOS is “no effect”.
